The results in this text go back to patent US20090186878A1, “CRYSTALLINE FORMS OF A FARNESYL DIBENZODIAZEPINONE” (THALLION PHARMACEUTICALS INC., priority 2006, published 2009).

The structures appear in SMILES notation. Values after ≈ are worked out from the molar mass of the structure shown.

Data set [1] is described as follows: Solubility determination in water (HPLC-MS of saturated aqueous solutions). Format: physicochemical. Conditions: for Solubility: in water, ambient temperature, after 24 hours, not at equilibrium, supernatant by HPLC-MS, LOD 10 ng/mL. How it is done: The drug solubility of a sample of each of crystal Form I and Form II and two samples of Form III (obtained from drying of Form I and Form II) was evaluated in water using an HPLC-MS method (High performance liquid chromatography apparatus coupled to a mass spectrometer). Saturated aqueous solutions of the crystals were stirred and kept at ambient temperature for 24 hours. Solutions were centrifuged at 3600 rpm and an aliquot of supernatant was analyzed by HPLC-MS.

Data set [2] is described as follows: Thermal treatment (annealing/drying) of crystals, check for decomposition. Format: physicochemical. To be noted: heated at 60, 70, 80, 90 or 100° C. under air atmosphere; by 1H NMR, TGA, XRPD and solubility. How it is done:
Crystal Form III was produced by annealing of either Form I or Form II crystals using a variety of temperatures and under various conditions such as air or inert atmosphere or under reduced pressure.
A sample of Compound 1 crystals of Form II (1 mg to 30 g) was dried for 6 hours in an oven at an isothermal 60° C. temperature under reduced pressure (1-4 Torr) using an Edwards RV8 pump (or in a vacuum oven). Sample was allowed to cool to room temperature and crystal Form III obtained was analyzed as described in Examples 3, 4, 5 and 6.
Annealing process was done above the temperature of solvent elimination. No degradation was observed up to 160° C. when crystals were annealed under nitrogen or under reduced pressure. Annealing was also shown to proceed slowly at temperatures as low as 50° C.
As an example, when temperatures of 60, 70 and 90° C. were used, subsequent DSC analysis gave melting points respectively of 185.5, 184.5 and 183.4° C., and a mass enthalpy respectively of 84.6, 66.8 and 64.9 J/g. A slight degradation (less than 4%) was observed (NMR and solubility) when a temperature of 120° C. was used (melting point of 174° C., mass enthalpy of 39.7 J/g) under air atmosphere.

As for `CC(C)=CCC/C(C)=C/CC/C(C)=C/CN1C(=O)c2cccc(O)c2Nc2c(O)cc(O)cc21` [Form I (MeOH/water)], in data set [1], the Solubility turned out to be 6.59 µg/mL (≈ 14.2 µM). The “Decomposition on transformation to Form III” value in data set [2] is reported as “without observable decomposition”.
In data set [1], `CC(C)=CCC/C(C)=C/CC/C(C)=C/CN1C(=O)c2cccc(O)c2Nc2c(O)cc(O)cc21` [Form II (EtOH/water)] registered a Solubility of 3.98 µg/mL (≈ 8.6 µM). Further, the “Decomposition on transformation to Form III” value in data set [2] is “without observable decomposition”.
As for `CC(C)=CCC/C(C)=C/CC/C(C)=C/CN1C(=O)c2cccc(O)c2Nc2c(O)cc(O)cc21` [Form III (annealed Form I)], the Solubility in data set [1] came out at 0.65 µg/mL (≈ 1.41 µM).
`CC(C)=CCC/C(C)=C/CC/C(C)=C/CN1C(=O)c2cccc(O)c2Nc2c(O)cc(O)cc21` [Form III (annealed Form II)]: the Solubility result in data set [1] is reported as “<LOD*”.
Consider `CC(C)=CCC/C(C)=C/CC/C(C)=C/CN1C(=O)c2cccc(O)c2Nc2c(O)cc(O)cc21` [Form III], for which the “Relative (thermodynamic) stability judged from solubility” value in data set [1] (from Table 3 water solubility) was “clearly more stable than crystal Forms I and II”.

Usually Solubility stands for how much of the substance goes into solution per volume. A low value points to little dissolved substance.
